According to the METLIN SMRT retention time set (Domingo-Almenara et al. 2019):

Experiment: gradient 5% acetonitrile 3 min, to 50% in 2 min, to 85% in 15 min, held 3 min, 100 µL/min
Details: column: Zorbax Extend-C18 2.1 x 50 mm; eluents: water / acetonitrile, 0.1% formic acid
How it was run: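 Pure standards were run in mixtures of ~100 molecules by HPLC coupled to a quadrupole time-of-flight mass spectrometer. The column was a Zorbax Extend-C18 (2.1 × 50 mm, 1.8 μm) at 100 μL/min, with water and acetonitrile each containing 0.1% formic acid, in positive and negative ionization mode. Dead and dwell volumes were 40 μL and 900 μL. Retention time was taken from computationally picked adduct peaks, each manually inspected, with data collected over 3 months.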

| SMILES | RP-LC retention time |
| --- | --- |
| Cc1nn2c(CNS(=O)(=O)Cc3ccccc3Cl)c(-c3ccccc3)nc2s1 | 919 s |
| CCc1ccc2c(c1)-c1ccccc1S(=O)(=O)N2CC(=O)NCc1ccccn1 | 720 s |
| CCOc1ccc(NC(=O)CSc2cc(N3CCN(c4ccc(OC)cc4)CC3)ncn2)cc1 | 1160 s |
| CC1(C)CC(=O)CC(C)(C)N1O | 666 s |
| O=C(NC1CCc2nnc(C3CC3)n2CC1)c1cc(C2CC2)[nH]n1 (stereo not given) | 581 s |
| Cc1ccccc1CN1C(=O)N(c2cccc(F)c2)c2ncccc2S1(=O)=O | 1090 s |
| COc1ccccc1-c1noc(-c2cn(C)c3ccc(F)cc3c2=O)n1 | 744 s |
| COc1cc(C(=O)Nc2nc3ccc4nc(SC)sc4c3s2)cc(OC)c1OC | 1080 s |
| COc1cccc(CNC(=O)C2(C)Oc3cccnc3N(C)C2=O)c1 (stereo not given) | 748 s |
| Cc1ccc(C2Cn3nnc(-c4nc(-c5ccccc5)no4)c3CO2)c(C)c1 (stereo not given) | 1240 s |
| Cc1ccc(S(=O)(=O)N2CCC(c3cc(N)on3)CC2)cc1 | 789 s |
| O=C1CC(c2noc(-c3ccccc3)n2)CN1c1ccc(Cl)cc1 (stereo not given) | 1040 s |
| CCOC(=O)c1cn[nH]c1S(=O)(=O)N1CCN(c2ccccn2)CC1 | 582 s |
| Cn1nc(C(=O)OCc2cc(-c3ccc(Cl)cc3)on2)ccc1=O | 812 s |
| COc1cc(C(=O)Nc2nnc(SCc3nnc(-c4ccccc4C)o3)s2)cc(OC)c1OC | 942 s |
| Fc1ccc(-c2nc(-c3ccc(-n4cccn4)nc3)no2)c(Cl)c1 | 1300 s |
| COc1ccc2c(c1)C1(CCN(C(=O)Nc3ccc(OC)c(OC)c3)C1)C(=O)N2 (stereo not given) | 671 s |
| Cc1c(-c2nnc(C3CCC3)o2)c(S(=O)(=O)NCc2ccc(Cl)cc2)c(C)n1C | 1010 s |
| COc1cccc(CNC(=O)C2=C3CCCN3c3ccc(Cl)cc3S2(=O)=O)c1 | 898 s |
| Cc1cc(-c2c(C)sc(C)c2S(=O)(=O)NCc2ccc(Cl)cc2)n[nH]1 | 1090 s |
| O=C(CCC1CCN(S(=O)(=O)c2ccccc2)CC1)NCc1ccco1 | 776 s |

| SMILES | RP-LC retention time |
| --- | --- |
| Cc1ccc2[nH]cc(CCNC(=O)c3sc4ncccc4c3-n3cccc3)c2c1 | 1070 s |
| CCC(C)c1ccc(-c2csc(NC(C)=O)n2)cc1 (stereo not given) | 1030 s |
| Cc1ccc(C)c(NC(=O)C(=O)NCC(c2ccc3c(c2)OCO3)N2CCN(C)CC2)c1 (stereo not given) | 702 s |
| Cn1c(=O)c2cc(C(=O)Nc3ccc4c(c3)OCCO4)cnc2n(-c2ccc(F)cc2)c1=O | 856 s |
| CCNC(=O)c1ccc2nnc(C3CC3)n2c1 | 590 s |
| O=C(Cn1cc(-c2nnco2)c2ccccc21)NCc1cccc(Br)c1 | 774 s |
| COc1ccc(-c2csc(NC(=O)Cn3c(=O)oc4cc(Br)ccc43)n2)cc1 | 1070 s |
| CCN1CCN(C(=O)C2CCCN(S(=O)(=O)c3ccc(OC)c(C)c3)C2)CC1 (stereo not given) | 636 s |
| Cc1cccc(-c2nc3ccccn3c2NC(=O)NCc2cccc(F)c2)c1 | 669 s |
| Cc1cc(C)cc(-c2nnc(Cc3nc(-c4ccccc4)no3)o2)c1 | 1130 s |
| CS(=O)(=O)c1nc2ccc(NS(=O)(=O)c3ccc4c(c3)OCCO4)cc2s1 | 792 s |
| CCN1CCC(N(Cc2cccs2)C(=O)Nc2cccc(Cl)c2)CC1 | 679 s |
| CCCN(CC1CC1)C(=O)[C@@H]1[C@H](c2cc(OC)c(OC)c(OC)c2)c2cc3c(cc2[C@H](O)[C@H]1CO)OCO3 | 740 s |
| CCn1cc(-c2nc(C(=O)NCc3ccccc3C)cs2)c2cccnc21 | 1060 s |
| Cc1ccc(-c2cc3c(=O)n(Cc4nc(-c5ccc(Br)cc5)no4)ncn3n2)c(C)c1 | 1340 s |
| CC(C)CCNc1nc(-c2ccc(Cl)cc2)nc2ccccc12 | 932 s |
| CC(C)c1ccc(S(=O)(=O)N2CCC(c3cc(N)on3)CC2)cc1 | 902 s |
| CNC(=O)c1ccc(-c2nc3cc(NS(=O)(=O)c4cc(Cl)ccc4OC)ccc3n2C)cc1 | 671 s |
| CCOc1ccc(NC(=O)c2c(O)c3cccnc3n(-c3cccc(F)c3)c2=O)cc1 | 1280 s |
| COc1cccc(CNC(=O)Cn2c(=O)c3cc(C)nn3c3ncccc32)c1 | 698 s |
| CC(C)NC(=O)CCC1CCN(c2cc(NC3CC3)ncn2)CC1 | 551 s |

| SMILES | RP-LC retention time |
| --- | --- |
| Cc1noc(C)c1-c1ccc(S(=O)(=O)Nc2ccc(F)c(Cl)c2)cc1 | 969 s |
| COc1ccc(-n2ncc3c(=O)n(Cc4nc(-c5cccc(Br)c5)no4)cnc32)cc1 | 1110 s |
| COc1cccc(NC(=O)N2CCC(n3c(-c4ccoc4)nc4cccnc43)C2)c1 (stereo not given) | 715 s |
| Cc1ccc(OCC(=O)N2CCC(c3noc(-c4cnccn4)n3)C2)cc1 (stereo not given) | 754 s |
| O=C(NC1CCCCC1)N1CCCCC1c1nncn1CC1CC1 (stereo not given) | 704 s |
| CCOc1ccc(OCC)c(NC(=O)C(=O)c2ccc[nH]2)c1 | 1070 s |
| Cc1ccc(C)c(CNS(=O)(=O)c2cc(-c3nc(C(C)(C)C)cs3)cs2)c1 | 1360 s |
| Cc1oc(-c2[nH]ncc2C(=O)N2CCOCC2)cc1S(=O)(=O)Nc1ccc(F)cc1 | 669 s |
| O=C(NCCn1c(=O)n(Cc2ccc(F)cc2)c2cccnc21)c1cnccn1 | 719 s |
| O=C(Nc1nc(C(=O)NCc2nc(-c3ccccc3)no2)co1)c1ccsc1 | 707 s |
| CCn1c(=O)oc2cc(-c3noc(-c4ccc(C)cc4)n3)ccc21 | 1060 s |
| CCC(C)NS(=O)(=O)c1ccccc1-c1nc(-c2ccc(C)cc2)no1 (stereo not given) | 1270 s |
| CCOC(=O)CNC(=O)N1CCCC1c1ccc(Cl)cc1 (stereo not given) | 795 s |
| CCOc1ccccc1-c1noc(-c2nc(C)no2)n1 | 986 s |
| Cn1cc(-c2noc(-c3cc(F)ccc3Cl)n2)ccc1=O | 894 s |
| Cc1ccc(S(=O)(=O)CCc2nc(-c3cccc(-c4ccnn4C)c3)no2)cc1 | 910 s |
| COCCOC1CCC12CCN(C(=O)c1conc1C)CC2 (stereo not given) | 706 s |
| CN(CCc1ccncc1)C(=O)C1CCN(c2cnn(Cc3ccccc3)c(=O)c2)CC1 | 612 s |
| O=C(O)C1CCCN(c2cc(-n3ccnc3)ncn2)C1 (stereo not given) | 537 s |
| Cc1ccc(NC(=O)Nc2cccn3nc(C)nc23)cc1 | 803 s |

Further lines, results first:

| RP-LC retention time | SMILES |
| --- | --- |
| 857 s | CCCc1ccc(-c2cc(C(=O)N3CCN(c4ccccn4)CC3)c3ccccc3n2)cc1 |
| 609 s | O=C(Cn1nc2c(cc1=O)CCCC2)Nc1nc(-c2ccccn2)cs1 |
| 558 s | O=C(NCc1ccccn1)C1CCN(c2cc(N3CCCCC3)ncn2)CC1 |
| 837 s | O=C(Cc1ccccc1Br)N1CCN(c2cc(-c3cccs3)[nH]n2)CC1 |
| 789 s | Cc1ccc(NC(=O)Cn2nc(N3CCOCC3)c3ccccc3c2=O)cc1 |
| 738 s | Cc1ccccc1NC(=O)Cn1c(C)nc2onc(C)c2c1=O |
| 872 s | O=C(Nc1ccc2c(c1)CCC2)C1CCN(C(=O)c2ncn3c2COC(c2ccc(F)cc2)C3)CC1 (stereo not given) |
| 1030 s | CCn1c(=O)c(N2CCN(C(=O)Nc3ccc(Br)cc3)CC2)nc2ccccc21 |
| 616 s | Cc1nc(N)n(CC(=O)N2CCc3ccccc32)c(=O)c1C |
| 585 s | CC(=O)N1CCc2[nH]c3ccc(C(=O)NC4CCN(Cc5ccccc5)CC4)cc3c2C1 |
| 813 s | CCN1C(=O)c2cc(C(=O)Nc3ccc(F)cc3)nn2CC1(C)C(=O)NC1CCCC1 (stereo not given) |
| 729 s | O=C(CSc1nc(=O)[nH]c2c1CCCC2)N1CCCc2ccccc21 |
| 584 s | Cc1ncc2n1CCN(S(=O)(=O)c1ccccc1)C2 |
| 653 s | CN(C)C(=O)c1n[nH]c2c1CN(C(=O)CCC(=O)c1ccc(F)cc1)CC2 |
| 1180 s | CC1Oc2ccccc2N(Cc2nc(-c3ccc(Br)cc3)no2)C1=O (stereo not given) |
| 635 s | O=C(NCc1ccc(N2CCOCC2)cc1)c1csc(-c2ccc(N3CCCC3)nc2)n1 |
| 1030 s | COc1ccccc1N1CCN(c2cc(SCC(=O)Nc3cccc(Cl)c3)ncn2)CC1 |
| 642 s | CNC(=O)Cc1ccc(NC(=O)NC2CCCCC2)cc1 |
| 818 s | CCc1nc(-c2csc(S(=O)(=O)N3CCC(C(=O)NCc4ccccc4C)CC3)c2)no1 |
| 634 s | CN(C)C(=O)c1n[nH]c2c1CN(C(=O)c1ccc(F)c(F)c1)CC2 |
| 566 s | c1ccc(-c2nnc(CN3CCCCC3)o2)cc1 |
| 663 s | CSc1ccc(CNC(=O)c2cn3c(n2)COCC3)cc1 |
| 957 s | COc1ccc(CNC(=O)Cn2nc3c(Oc4ccccc4C)nccn3c2=O)cc1 |
| 780 s | CCN(c1ccccc1F)S(=O)(=O)c1cc2n(c1)CCCN(C)C2=O |
| 690 s | O=C(c1ccco1)N1CCN(S(=O)(=O)c2cc3c4c(c2)CCC(=O)N4CCC3)CC1 |
| 571 s | CCN(CC)CCNC(=O)C1(O)c2ccccc2NC(=O)N1c1ccc(C)c(C)c1 (stereo not given) |
| 783 s | CN1c2cc(F)ccc2C(=O)NC12CCN(C(=O)Cc1ccccc1Cl)CC2 |
| 807 s | Cc1ccc(CNC(=O)C2CCCN(c3ncnc4c3oc3ccccc34)C2)cc1 (stereo not given) |
